In patent US20060276416A1, “Methods and compositions for treating flushing and drug induced weight gain” (Sirtris Pharmaceuticals, Inc., priority 2005, published 2006):
Several values for one entry are separate records, joined by “and”; a condition that tells them apart may be missing. Equal values may be shown once.

Experiments:
[1] = system: HepG2 cells; assay: Oxidation of 14C-palmitate (14C-CO2 production); assay type: cell-based; conditions: resveratrol 10 μM, AICAR 500 μM, metformin 1 mM; 4 hours; vehicle 1
Procedure: (§1) Oxidation of ^14C-palmitate to acid-soluble products (modified from […] cells ([…]. and B. E. Kemp, J Biol Chem (1992) 267(5): 2864-7) and HepG2 cells were maintained as described above. Cells (10^6 cells/T25) were seeded in a T25 flask one day prior to the experiment. […] At the end of incubation, the cap of each […]per and a 1'×1.5'' Whatman filter paper soaked with 250 μl 2N NaOH. Each flask was injected with 2 ml of 6N HCL, placed in a horizontal position for 10 minutes and left standing overnight. […] The experiment was repeated three times.

[2] = system: H4IIEC3 cells; assay: Oxidation of 14C-palmitate (14C-CO2 production); assay type: cell-based; conditions: resveratrol 10 μM, AICAR 500 μM, metformin 1 mM; 4 hours; vehicle 1
Procedure: as §1

[3] = molecular target: p53-382 acetylated peptide substrate ('Fluor de Lys-SIRT1', BIOMOL) (human) (UniProt P04637)
[4] = system: S. cerevisiae; assay: Yeast replicative lifespan by micro-manipulation; assay type: cell-based; conditions: 10 μM
Procedure: Average lifespan for wild type, 22.9 generations, quercetin, 23.4; piceatannol.
Lifespan measurements were performed using PSY316AT MATα as previously described^35. All compounds for lifespan analyses were dissolved in 95% ethanol and plates were dried and used within 24 hours. Prior to lifespan analysis, cells were pre-incubated on their respective media for at least 15 hours. Following transfer to a new plate, cells were equilibrated on the medium for a minimum of 4 hours prior to micro-manipulating them. At least 30 cells were examined per experiment and each experiment was performed at least twice. Statistical significance of lifespan differences was determined using the Wilcoxon rank sum test. Differences are stated to be significant when the confidence is higher than 95%.

[5] = molecular target: T1, recombinant human SIRT1 (Homo sapiens, UniProt Q96EB6); assay: SIRT1 fluorescent deacetylation assay (p53-382 acetylated peptide); assay type: biochemical
T1 sequence (Q96EB6 1-747): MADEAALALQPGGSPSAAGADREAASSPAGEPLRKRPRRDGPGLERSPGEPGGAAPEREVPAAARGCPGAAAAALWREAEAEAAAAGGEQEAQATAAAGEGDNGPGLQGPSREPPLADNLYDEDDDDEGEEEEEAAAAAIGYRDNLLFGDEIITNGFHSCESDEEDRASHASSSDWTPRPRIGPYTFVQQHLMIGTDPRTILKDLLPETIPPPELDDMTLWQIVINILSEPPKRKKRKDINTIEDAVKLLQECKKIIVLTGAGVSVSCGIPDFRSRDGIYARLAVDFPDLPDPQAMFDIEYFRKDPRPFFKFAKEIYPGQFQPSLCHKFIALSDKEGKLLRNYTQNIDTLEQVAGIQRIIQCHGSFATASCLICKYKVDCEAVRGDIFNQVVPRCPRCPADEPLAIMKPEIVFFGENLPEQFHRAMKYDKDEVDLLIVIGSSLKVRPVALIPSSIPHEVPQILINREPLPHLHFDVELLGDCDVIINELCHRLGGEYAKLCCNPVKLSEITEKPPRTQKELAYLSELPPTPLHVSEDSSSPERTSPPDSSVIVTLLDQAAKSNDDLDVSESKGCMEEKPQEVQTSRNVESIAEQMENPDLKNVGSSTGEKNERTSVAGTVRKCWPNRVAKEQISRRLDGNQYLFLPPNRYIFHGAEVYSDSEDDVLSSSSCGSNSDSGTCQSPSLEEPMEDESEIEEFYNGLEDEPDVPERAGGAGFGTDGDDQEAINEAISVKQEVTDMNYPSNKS
Procedure: To identify compounds that modulate SIRT1 activity, a number of small molecule libraries were screened using a fluorescent deacetylation assay in 96-well plates^26. The substrate used in the assay was a fluorogenic peptide based on the sequence encompassing the p53-K382 acetylation site, a known target of SIRT1 in vivo^20,21,27. […] The small molecule libraries included analogues of nicotinamide, ε-acetyl lysine, NAD^+, nucleotides, nucleotide analogues and purinergic ligands.
From 0.1 to 1 μg of SIRT1 and 1.5 μg of Sir2 were used per deacetylation assay (in 50 μl total reaction) as previously described^26. SIRT1 assays and certain of those for Sir2 employed the p53-382 acetylated substrate (‘Fluor de Lys-SIRT1’, BIOMOL) rather than FdL.
Themed compound libraries (BIOMOL) were used for primary and secondary screening. Most polyphenol compounds were dissolved at 10 mM in dimethylsulfoxide (DMSO) on the day of the assay. For water soluble compounds and negative controls, 1% v/v DMSO was added to the assay. In vitro fluorescence assay results were read in white ½-volume 96-well microplates (Corning Costar 3693) with a CytoFluor™ II fluorescence plate reader (PerSeptive Biosystems, Ex. 360 nm, Em. 460 nm, gain=85). […] Unless otherwise indicated all initial rate measurements were means of three or more replicates, obtained with single incubation times, at which point 5% or less of the substrate initially present had been deacetylated. Calculation of net fluorescence increases included subtraction of a blank value, which in the case of Sir2 was obtained by omitting the enzyme from the reaction and in the case of SIRT1 by adding an inhibitor (200 μM suramin or 1 mM nicotinamide) to the reaction prior to the acetylated substrate. A number of the polyphenols partially quenched the fluorescence produced in the assay and correction factors were obtained by determining the fluorescence increase due to a 3 μM spike of an FdL deacetylated standard (BIOMOL, catalog number KI-142). All error bars represent the standard error of the mean.
All SIRT1 rate measurements used in the calculation of “Ratio to Control Rate” were obtained with 25 μM NAD^+ and 25 μM p53-382 acetylated peptide substrate were performed as described above and in K. T. Howitz et al. Nature (2003) 425: 191. All ratio data were calculated from experiments in which the total deacetylation in the control reaction was 0.25-1.25 μM peptide or 1-5% of the initial concentration of acetylated peptide.

[6] = system: C. elegans; assay: C. elegans fat accumulation, Nile Red staining; assay type: in vivo; conditions: for Concentration as low as which fat accumulation is reduced: 10, 50 and 100 μM tested
Procedure: Fat accumulation was visualized with Nile Red staining, as described further below and in Ashrafi K, et al. Nature 421:268-27 (2003).
Synchronized starved L1 worms were grown in the presence of Nile Red. Strains were grown on NGM plates at 25° C. for approximately 48 hours until the young adult stage was reached. 20-30 young adult worms were then washed 2× with M9 buffer and transferred to new NGM/Nile red experimental plates that contained either OP50 or HTT5 E. coli carrying the L4440 RNAi control vector.
Young adults were transferred to plates containing the appropriate vector, Nile Red stain and drug then maintained at 25° C.
Nile Red: Nile Red Powder (Sigma #N-3013) was dissolved in acetone at 500 μg/ml, diluted in 1× Phosphate Buffered Saline (PBS) including appropriate drug and applied to surface of Nematode Growth Media (NGM) plates previously seeded with OP50 or RNAi bacteria, at a final concentration of 0.05 μg/ml. Fat content was monitored and recorded by fluorescence microscopy.

[7] = molecular target: T2, SIRT1 deacetylase (BIOMOL) (Homo sapiens, UniProt Q96EB6); assay: High-throughput SIRT1 screening protocol (Fluor de Lys-SIRT1, 384 well); assay type: biochemical; conditions: positive controls; roughly 50 μM, 200 μM NAD+, 5 μM Fluor de Lys-SIRT1
T2 construct: purchased BIOMOL
T2 sequence (Q96EB6 1-747): T1 sequence (Q96EB6 1-747)
Procedure: The reaction mixture contains (final): 0.5 units/reaction SIRT1 deacetylase (BIOMOL); 200 μM NAD^+; 5 μM Fluor de Lys-SIRT1 substrate (BIOMOL); buffer (25 mM Tris/Cl, pH 8.0, 137 mM NaCl, 2.7 mM KCl, 1 mM MgCl2, and 1 mg/ml BSA). In addition, a reaction mixture containing no enzyme was made so that each well receiving compound has a corresponding “no enzyme control” well. Reactions were performed in black 384 well plates (NUNC) in a final volume of 25 μl/well.
The reactions were started by combining enzyme and substrate in a reaction mixture immediately prior to aliquoting in plates (or substrate only for “no enzyme control” plates). Mixture were aliquoted to plates using Biotek μFill (Biotek Instruments). Control mixtures were manually added to designated wells. A library compound was added at a desired concentration by pin transfer to both “with enzyme” and “no enzyme” plates. Compounds were added in at least triplicate (with enzyme reaction in duplicate and no enzyme controls) at a final concentration of roughly 50 μM. The plates were incubated at 37° C. for 30-60 minutes. Then 25 μl of 1× Developer II (BIOMOL) plus 2 mM nicotinamide were added to all wells to stop the reactions. The reactions were left for at least 30 minutes at 37° C. for the signal to develop. The plates were read in a microplate-reading fluorometer capable of excitation at a wavelength in the range of 350-380 nm and detection of emitted light in the range of 440-460 nm. A read time of 0.1 sec per well was used.

[8] = system: TNF-alpha treated adipocytes; assay: Radioactive glucose uptake in TNF-alpha treated insulin resistant adipocytes; assay type: cell-based; conditions: resveratrol 5 μM or 15 μM; roziglitazone 4 μM
[9] = system: D. melanogaster; assay: D. melanogaster survival (lifespan) assay; assay type: in vivo
Procedure: Survival assays were conducted independently with adult D. melanogaster in two laboratories. In the first laboratory, all trials used an yw marked wild-type strain. Larvae were reared on standard cornmeal-sugar-yeast (CSY) agar diet (cornmeal 5%, sucrose 10.5%, SAF yeast 2%, and agar 0.7%). Newly eclosed adults were placed in 1 L demography cages with approximately 75 males and 75 females. Three to four replicate 1 L demography cages were used for each treatment group in each trial. Every two days, dead flies were removed and scored, and food vials were replenished. Food vials contained cornmeal-sugar-yeast diet with SAF yeast as either 2% or 3% by weight. Test compounds in 100 μl of EtOH (or blank EtOH in controls) were mixed into melted aliquots of the adult food media to make a final concentration of 0, 10 or 100 μM. Fresh stock solutions and adult media were prepared weekly. In the second laboratory, lifespan trials were conducted with the wild type strain Canton-S, dSir2^4.5 and dSir2^5.26 (S. Smolik, University of Oregon), dSir2^17 (S. Astrom, Stockholm University, Sweden), and dSir2^KG00871 (Drosophila Stock Center, Bloomington, Ind.). Larvae for all tests were reared on standard cornmeal-sugar-yeast diet. Newly eclosed adults were incubated in plastic shell vials containing 5 ml of 15% sugar-yeast diet (15% SY) or 5% sugar-yeast (5% SY) diet (15% SY: 15% yeast, 15% sucrose, 2% agar; 5% SY: 5% yeast, 5% sucrose, 2% agar as per Ref.^20). In all trials, ˜20 males with ˜20 females were placed into each of 10 vials/treatment group. Every two days, flies were passed into new vials and dead flies were counted. […] Final compound concentrations were 0, 10, 100 or 200 μM. Fresh stock solution and adult media was prepared weekly.

[10] = system: AMPK at Thr172 and ACC at serine 79; assay: AMPK and ACC phosphorylation Western in CHO-HIR cells; assay type: cell-based; conditions: AICAR 500 μM; resveratrol 12.5, 25 or 50 μM; 30 minutes
Procedure: Cells were harvested after 30 minutes and lysates were immediately boiled in SDS and subjected to Western analysis with site-specific antibodies. Phosphorylation of AMPK at Thr172 indicates activation of the kinase. Active AMPK phosphorylates and inactivates ACC at serine 79.

CN(C)C(=N)N=C(N)N [Metformin]
14C-CO2 production (nmol/hr/10^6 cells) (Fold Effect) [1]: 3.5 fold | 14C-CO2 production (nmol/hr/10^6 cells) (Fold Effect) [2]: 2 fold

His6-tagged recombinant SIRT1 (from UniProt Q96EB6) (enzyme)
Km for the p53-382 acetylated peptide (SIRT1 initial deacetylation rate, fluorescence) [3]: 64 µM

Oc1cc(O)cc(/C=C/c2ccc(O)c(O)c2)c1 [piceatannol, 3,5,3′,4′-Tetrahydroxy-trans-stilbene]
Effect on lifespan (in words) [4]: no significant effect | Stimulation of SIRT1 activity ([5]; initial screen (Table 1, 100 μM)): eight | Fat mobilization ([6]; 100 μM, 48 hours): stimulate fat mobilization

COc1ccc(/C=C/c2cc(O)cc(O)c2)cc1 [BML-233, 3,5-Dihydroxy-4′-methoxy-trans-stilbene]
Activation of SIRT1 [7]: 2.1 fold

roziglitazone
Insulin sensitivity (radioactive glucose uptake) [8]: increases the uptake of radioactive glucose

NC(=O)c1cccnc1 [nicotinamide]
Vmax decrease ([5]; 50 μM nicotinamide, absence of resveratrol, two determinations (varying NAD+ or p53-382 peptide)): 30% and 36% | Fat accumulation ([6]; 0, 1 or 10 mM nicotinamide, overnight): concentration dependent increase in fat accumulation

O=c1c(O)c(-c2ccc(O)c(O)c2)oc2cc(O)cc(O)c12 [quercetin, 3,5,7,3′,4′-Pentahydroxyflavone]
Effect on lifespan (in words) [4]: no significant effect | Fat mobilization ([6]; 100 μM, 48 hours): stimulate fat mobilization | Concentration as low as which fat accumulation is reduced ([6]; 48 hours): 10 µM

O=c1c(O)c(-c2ccc(O)c(O)c2)oc2cc(O)ccc12 [fisetin, 3,7,3′,4′-Tetrahyddroxyflavone]
Longevity under restricted diet ([9]; restricted diet): neither resveratrol nor fisetin further increased longevity | Lifespan extension ([9]; wild type strains, males and females, independent tests, maximum): up to 23% | Fat mobilization ([6]; 100 μM, 48 hours): stimulate fat mobilization | Concentration as low as which fat accumulation is reduced ([6]; 48 hours): 10 µM

Oc1cc(O)cc(/C=C/c2ccccc2)c1 [Pinosylvin, 3,5-Dihydroxy-trans-stilbene]
Activation of SIRT1 [7]: 3.28 fold

NC(=O)c1ncn([C@@H]2O[C@H](CO)[C@@H](O)[C@H]2O)c1N [AICAR, 5-aminoimidazole-4-carboxamide-1-beta-D-ribofuranoside]
Phosphorylation of AMPK and ACC [10]: stimulates phosphorylation of AMPK and ACC | 14C-CO2 production (nmol/hr/10^6 cells) (Fold Effect) [1]: 5 fold | 14C-CO2 production (nmol/hr/10^6 cells) (Fold Effect) [2]: 2.3 fold

C(=C/c1ccccc1)/c1ccccc1 [cis-stilbene, cis-Stilbene]
Fat staining ([6]; 100 μM, 48 hours, control 2.5% v/v DMSO): No significant effect
